From patent US11304955B2, “Small-molecule povidone analogs in coamorphous pharmaceutical phases” (ISP INVESTMENTS LLC, priority 2017, dated 2022)

Experiments:
[1] = ground 1:1 mixture with bisVCap, heated to 150-180° C., cooled to −85° C., second heating cycle
[2] = Screening of bisVCap and bisVP with a range of drugs (hot stage melt, polarized optical microscopy); format: physicochemical; settings: for crystallinity by polarized light microscopy, drug with bisVCap: drug:bisVCap 1:1 mol ratio, ground, melted, cooled, overnight / 18 hours at room temperature
Description: Control samples without lactam coformers were also prepared for comparison. The slides were then allowed to cool to room temperature. The samples were examined using polarized optical microscopy after storing them overnight and again two weeks after melting to assess their crystallinity. Polarized optical micrographs were observed.
A Linkam LTS420 heating stage attached to a Olympus XC50 microscope was used to heat the samples. Samples were placed on a glass microscope slide with a thin glass cover slide. […] Samples were then removed from the hot stage and allowed to cool. BisVCap was ground in 1:1 molar mixture with carbamazepine, carisoprodol, isoniazid and ROY. The carbamazepine/bisVCap sample was heated from room temperature to 170° C. at a rate of 10° C. min^−1, cooled at ° C. min^−1 to −40° C., then heated at 10° C. min^−1 to 165° C. The carisoprodol/bisVCap sample was heated from room temperature to 150° C. at a rate of 10° C. min^−1, cooled at ° C. min^−1 to −75° C., then heated at 10° C. min^−1 to 145° C. min^−1. The isoniazid/bisVCap sample was heated from room temperature to 175° C. at a rate of 10° C. min^−1, cooled at ° C. min^−1 to −100° C., then heated at 10° C. min^−1 to 125° C. min^−1. The ROY/bisVCap sample was heated from room temperature to 150° C. at a rate of 10° C. min^−1, cooled at ° C. min^−1 to −90° C., then heated at 10° C. min^−1 to 155° C. min^−1.

[3] = Hot stage microscope experiments with increasing drug:bisVCap ratios; format: physicochemical; settings: melted, cooled to room temperature
Description: One major problem with PVP as an amorphous stabilizer is that often a large amount is required for stabilization of the amorphous phase. This often leads to very large pills or dosage forms which consist of multiple tablets. Thus further hot stage microscope and DSC experiments of bisVCap mixtures with carisoprodol, carbamazepine, isoniazid and ROY were performed with increasing drug:bisVCap ratios to determine the minimum ratio of coformer required to maintain the API in an amorphous state.
For the microscope experiments the drugs and bisVCap were ground in the desired ratio, heated until all the sample had melted then cooled back to room temperature and analyzed by polarized light microscopy.
(§1) A Linkam LTS420 heating stage attached to a Olympus XC50 microscope was used to heat the samples. Samples were placed on a glass microscope slide with a thin glass cover slide. For the amorphous material screening compounds were ground together in various drug to coformer ratio using 0.05 g of coformer in each case and heated at 30° C. min^−1 until the all of the sample had melted. Samples were then removed from the hot stage and allowed to cool. BisVCap was ground in 1:1 molar mixture with carbamazepine, carisoprodol, isoniazid and ROY. The carbamazepine/bisVCap sample was heated from room temperature to 170° C. at a rate of 10° C. min^−1, cooled at ° C. min^−1 to −40° C., then heated at 10° C. min^−1 to 165° C. The carisoprodol/bisVCap sample was heated from room temperature to 150° C. at a rate of 10° C. min^−1, cooled at ° C. min^−1 to −75° C., then heated at 10° C. min^−1 to 145° C. min^−1. The isoniazid/bisVCap sample was heated from room temperature to 175° C. at a rate of 10° C. min^−1, cooled at ° C. min^−1 to −100° C., then heated at 10° C. min^−1 to 125° C. min^−1. The ROY/bisVCap sample was heated from room temperature to 150° C. at a rate of 10° C. min^−1, cooled at ° C. min^−1 to −90° C., then heated at 10° C. min^−1 to 155° C. min^−1.

[4] = Heat-cool-heat cycles on hot stage with polarized light microscope; format: physicochemical; settings: 1:1 mixture with bisVCap
Description: The same heat-cool-heat cycles used in the DSC experiments were reproduced using a hot stage attached to a polarized light microscope for 1:1 mixtures of carisoprodol, carbamazepine, isoniazid and ROY with bisVCap.
as §1

[5] = format: physicochemical; settings: for crystallinity of ROY sample on the basis of birefringence: coformer ground 1:1 molar with ROY (PVP K12, PVCap 1:1 by mass; ROY control without coformer), melted, cooled to room temperature overnight
Description: Compounds 3-8 and VCap were all ground using a mortar and pestle in a 1:1 molar ratio with ROY. Comparative experiments were also undertaken in the same way with PVP (K12) (1) and PVCap (2) in a 1:1 ratio by mass with ROY. The samples were then placed on a microscope slide and covered with a thin, glass cover slip and heated using a hot stage optical microscope until all material had melted. The samples were then removed from the hot stage and allowed to cool to room temperature overnight. The cooled samples were examined under a microscope fitted with cross polarizing filters and assessed for crystallinity on the basis of birefringence.
as §1

[6] = Dynamic vapor sorption (DVS) water uptake; format: physicochemical; settings: for hygroscopicity: DVS, small mass increase and lack of hysteresis; for mass increase in DVS plot: up to 90% relative humidity
Description: A significant issue with PVP as an amorphous stabilizer is its hydroscopicity, and amorphous materials are frequently hygroscopic. Dynamic vapor sorption (DVS) has been used to compare the water uptake of bisVCap and PVP. […] However, amorphous forms have more apparent solubility than crystal forms and it is possible that amorphous bisVCap could absorb much more water than the crystalline form.
DVS was performed using an SMS DVS-1 with a 10% RH step between humidity values with equilibrium achieved at 0.01% weight change before moving to the next step. Methods began at the humidity of the room at ambient which was measured by a Rotronic A/H hygrometer. The humidity was then increased to 90% RH before cycling to 0% RH, to 90% RH, to 0% RH. Samples weighing between 5-20mg were used.

For `CCc1cc(C(N)=S)ccn1` [ethionamide], the “DSC behaviour of mixture with bisVCap” value [1] was “sharp and overlapping endothermic peaks on heating, which arise from decomposition” and the “crystallinity by polarized light microscopy, drug with bisVCap” value (from here on “crystallinity … with bisVCap”) [2] was “appear amorphous”.
With `NNC(=O)c1ccncc1` [isoniazid] the “DSC behaviour of mixture with bisVCap” value [1] was “lacking features assignable to decomposition, recrystallization or melting endotherms in the second heating cycle”, the “visible crystallization by polarized light microscopy” value (“visible crystallization” for short) ([3]; 2:1 drug:bisVCap molar ratio) was “no visible crystallization” and the “visible crystallization” value ([3]; 3:1 drug:bisVCap ratio) was “formed crystals overnight”. The “coamorphous phase formation in hot stage heat-cool-heat cycle” value (from here on “coamorphous phase formation”) [4] was “confirm coamorphous phase formation” and the “crystallinity … with bisVCap” value [2] was “appear amorphous”.
In the case of `Cc1c(Cl)cccc1Nc1ccccc1C(=O)O` [tolfenamic acid], the “DSC behaviour of mixture with bisVCap” value [1] is reported as “sharp and overlapping endothermic peaks on heating, which arise from decomposition” and the “crystallinity … with bisVCap” value [2] is reported as “appear amorphous”.
In the case of `NCCc1ccc(O)c(O)c1` [dopamine], the “crystallinity … with bisVCap” value [2] is reported as “appear amorphous”.
With (bis)vinylcaprolactam [bisVCap] the “stability of coamorphous phase with ROY on storage” value [5] was “stable for prolonged periods”, the “crystallinity of ROY sample on the basis of birefringence” value [5] was “gives a coamorphous phase with ROY” and the hygroscopicity [6] was “not hydroscopic”.
With `NC(=O)N1c2ccccc2C=Cc2ccccc21` [carbamazepine] the “DSC behaviour of mixture with bisVCap” value [1] was “lacking features assignable to decomposition, recrystallization or melting endotherms in the second heating cycle”, the “visible crystallization” value ([3]; 2:1 drug:bisVCap molar ratio) was “no visible crystallization” and the “visible crystallization” value ([3]; 3:1 drug:bisVCap ratio) was “formed crystals overnight”. The “coamorphous phase formation” value [4] was “confirm coamorphous phase formation” and the “crystallinity … with bisVCap” value [2] was “appear amorphous”.
With “(bis)vinylcaprolactam [Amorphous bisVCap]” the hygroscopicity [6] was “not significantly hygroscopic” and the “mass increase in DVS plot” value [6] was 1.2%.
In the case of `CCCCC(=O)N(Cc1ccc(-c2ccccc2-c2nnn[nH]2)cc1)[C@H](C(=O)O)C(C)C` [Valsartan], the “crystallinity by polarized light microscopy, drug on its own” value ([2]; control sample without lactam coformer, melted and cooled to room temperature) is reported as “remains amorphous”.
In the case of `Cc1cccc(C)c1OCC(C)N` (stereo not drawn) [mexiletine], the “DSC behaviour of mixture with bisVCap” value [1] is reported as “sharp and overlapping endothermic peaks on heating, which arise from decomposition” and the “crystallinity … with bisVCap” value [2] is reported as “appear amorphous”.
For `Cn1c(=O)c2c(ncn2C)n(C)c1=O` [caffeine], the “crystallinity … with bisVCap” value [2] was “crystallized overnight”.
For `CCOC(=O)c1ccc(N)cc1` [benzocaine], the “crystallinity … with bisVCap” value [2] was “crystallized overnight”.
For `CC(C)Cc1ccc(C(C)C(=O)O)cc1` (stereo not drawn) [ibuprofen], the “DSC behaviour of mixture with bisVCap” value [1] was “sharp and overlapping endothermic peaks on heating, which arise from decomposition” and the “crystallinity … with bisVCap” value [2] was “appear amorphous”.
In the case of `Cc1cc(C#N)c(Nc2ccccc2[N+](=O)[O-])s1` [ROY, 5-methyl-2-[(2-nitrophenyl)amino]-3-thiophenecarbonitrile], the “crystallinity of ROY sample on the basis of birefringence” value [5] is reported as “readily crystallizes”, the “time to ROY crystallization upon cooling” value ([5]; melt of ROY alone or 1:1 molar with coformer, cooling to room temperature) is reported as “within a few minutes” and the “DSC behaviour of mixture with bisVCap” value [1] is reported as “lacking features assignable to decomposition, recrystallization or melting endotherms in the second heating cycle”. The “visible crystallization” value ([3]; 2:1 drug:bisVCap molar ratio) was “no visible crystallization”, the “visible crystallization” value ([3]; 3:1 drug:bisVCap ratio) was “formed crystals overnight” and the “coamorphous phase formation” value [4] was “confirm coamorphous phase formation”.
With `CN(C)C(=N)N=C(N)N` [metformin] the “crystallinity … with bisVCap” value [2] was “crystallized overnight”.
In the case of `CCCC(C)(COC(N)=O)COC(=O)NC(C)C` (stereo not drawn) [carisoprodol], the “DSC behaviour of mixture with bisVCap” value [1] is reported as “lacking features assignable to decomposition, recrystallization or melting endotherms in the second heating cycle”, the “visible crystallization” value ([3]; 2:1 drug:bisVCap molar ratio) is reported as “no visible crystallization” and the “visible crystallization” value ([3]; 3:1 drug:bisVCap ratio) is reported as “did not show any visible crystallization”. The “visible crystallization” value ([3]; 4:1 drug:bisVCap ratio) was “formed crystals overnight”, the “coamorphous phase formation” value [4] was “confirm coamorphous phase formation” and the “crystallinity … with bisVCap” value [2] was “appear amorphous”.
With “(bis)vinylcaprolactam [crystalline bisVCap]” the hygroscopicity [6] was “not significantly hygroscopic” and the “mass increase in DVS plot” value [6] was 0.35%.
